Earlier results as cited in patent US20240238224A1, “COMPOSITION FOR LOCAL ANAESTHESIA AND USES THEREOF” (priority 2023, published 2024).

Test system: test teeth

SMILES	effectiveness for inducing pulpal anesthesia, 4% versus 3% tetracaine (non-injected formulation with vasoconstrictor, reported in U.S. Pat. No. 8,580,282 B2)	effectiveness compared with tetracaine (reported in U.S. Pat. No. 8,580,282 B2, cols. 7, 13, 14)
CCCCNc1ccc(C(=O)OCCN(C)C)cc1 [tetracaine, 2-(dimethylamino)ethyl 4-(butylamino)benzoate]	4% tetracaine is less effective than 3%	
CCCCN1CCCCC1C(=O)Nc1c(C)cccc1C (centres unmarked) [bupivacaine, 1-butyl-N-(2,6-dimethylphenyl)piperidine-2-carboxamide]		not as effective as tetracaine
